From ChEMBL document CHEMBL1131844, “Substituted indoles as potent and orally active 5-lipoxygenase activating protein (FLAP) inhibitors” (Bioorg Med Chem Lett, 1999) come the findings set out here.

A short description of data set [1]: plasma level at 2 hr after administration of the compound. It counts as ADME, organism-based. Conditions: rat.
Data set [2] is described as follows: Bioavailability in rat. It counts as ADME, organism-based. Conditions: in vivo.
Data set [3] is filed under the species Homo sapiens. The experiment in a line: The drug dependent inhibition of LTB4 biosynthesis in human whole blood (HWB) activated with the ionophore A-23187. It counts as functional, organism-based. Conditions: Homo sapiens, Blood.
Data set [4] has as its system Rattus norvegicus. The experiment in a line: In vivo inhibitory activity against LTB4 biosynthesis by rat pleurisy model (3h pre treatment time periods). The format is functional.
Data set [5] is filed under the species Homo sapiens. The experiment in a line: In vitro inhibition of LTB4 biosynthesis in Ca++ ionophore activated human polymorphonuclear (HPMN) leukocytes. The format is functional. The conditions noted are these: Homo sapiens.
Data set [6] concerns the target T1, Arachidonate 5-lipoxygenase-activating protein (Homo sapiens, UniProt P20292).
T1 sequence (P20292 whole entry): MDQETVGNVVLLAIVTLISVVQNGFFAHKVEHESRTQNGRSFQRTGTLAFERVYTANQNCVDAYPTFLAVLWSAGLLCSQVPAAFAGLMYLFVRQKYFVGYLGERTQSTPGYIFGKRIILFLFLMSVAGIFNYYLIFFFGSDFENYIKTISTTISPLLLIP
Kind of data set: Measuring the affinity of leukotriene synthesis inhibitor for 5-Lipoxygenase activating protein (FLAP) by using [125I]L-691831 as radioligand.

In data set [7] the test system is Rattus norvegicus. Kind of data set: Compound was evaluated in vivo for its functional activity(in percent) in a hyperreactive rat model of dyspnea. Further details: concentration or dose not given beside the values.

SMILES strings stand for the structures.

On to `C[C@@H](COc1ccc2c(c1)c(SC(C)(C)C)c(CC(C)(C)C(=O)O)n2Cc1ccc(Cl)cc1)c1ccccn1`, for which the concentration at 2 h in data set [1] amounted to 13 µM. Further, in data set [2], the bioavailability (as a rule, the share of a dose that reaches the circulation, judged against a reference dose that is usually intravenous) turned out to be 60%. The 50% inhibitory concentration (IC50) (commonly the point on the concentration scale where inhibition reaches its midpoint) came to 280 nM in data set [3], 2 nM in data set [5] and 6 nM in data set [6]. The median effective dose (ED50) (in general, the dose that gives a 50% effect, or the effect in half of the subjects) in data set [4] stood at 0.16 mg/kg. Besides, the “Functional activity in dyspnea model” value in data set [7] amounted to 64%.
